# Values joined by “and” are separate entries in the source; they are usually repeats but may differ in a detail not shown here. Equal entries are not always repeated. Square brackets hold non-standard residues; d marks the D form. Peptide text beside a SMILES is read from it. * marks the point of attachment. Sta = CC(C)C[C@H](N)[C@@H](O)CC(=O)O; pNA = O=[N+]([O-])c1ccc(N*)cc1; Isovaleryl = CC(C)CC(=O)*; MeOSuc = COC(=O)CCC(=O)*
# How the values were obtained:
# [1] = target: T1, recombinant HRV 3C protease (Human rhinovirus 14, UniProt P03303); test: HRV 3C protease activity with inhibitors (Buffer+3C, PEP1); assay type: biochemical; conditions: 4 μM PEP1; 50 nM recombinant HRV 3C protease
# T1 construct: Reactions were performed at 4 μM PEP1 and 50 nM recombinant HRV 3C protease
# Procedure: (§1) All inhibitors were dissolved at 100×, aliquoted, stored and used according to the manufacturers' instructions. No freeze thaw cycles were imposed on the inhibitors. Prior to starting the assay by addition of substrate, 10 μl of the cocktail or individual inhibitor was incubated for 5 min with 90 μl of the sample/buffer+ HRV protease.
# (§2) To test the effect of the inhibitors on protease activity (Buffer+3C) and on background noise present in a nasal wash specimen pool, reaction rates were compared with or without the inhibitors in question (Table 12). Reactions were performed at 4 μM PEP1 and 50 nM recombinant HRV 3C protease for 5 min under starting buffer environment. A nasal wash specimen pool of four HRV negative specimens by RT-PCR was used due to insufficient volume from an individual specimen and to reproduce equal conditions throughout the experiments.
# (§3) Results with and without inhibitory cocktail and with cocktail+recombinant HRV 3C protease are shown for both the specimen pool (FIG. 21A) and human WBC at ˜1×10^6 cell/ml (FIG. 21B). […] Spiking of recombinant HRV 3C protease to reactions with the inhibitory cocktail induced specific HRV protease activities at normal rates. Reactions were performed with 4 μM PEP1 and 50 nM recombinant HRV 3C protease where indicated (by +3C). The data are representative of two independent repeats.
# [2] = system: non specific proteolytic activity of the nasal wash specimen; test: Background noise in nasal wash specimen pool (HRV assay, PEP1); assay type: biochemical; conditions: 4 μM PEP1; 5 min
# Procedure: as §1, §2, §3
# [3] = target: T2, Recombinant protease from enterovirus strain Echo (Echovirus 30, UniProt Q9WN78); test: Enterovirus assay optimization with recombinant Echo protease (plates, tubes, buffer, Na2SO4, substrate concentration, diluent); assay type: biochemical; conditions: for Positive control, Average / Positive control: substrate stock diluted 1:8 in this diluent, 0.25 uM final; for Positive control: single repetition; for enzymatic activity: 0.25 uM substrate
# T2 construct: Phosphoramidon was tested using the Echovirus 3C recombinant
# Procedure: • Inhibitor Cocktail: Inhibitors cocktail I10 • Enzyme dilution buffer: −25 mM HEPES pH 7.5, 150 mM NaCl, 1 mM EDTA, 10% Glycerol, 0.5 mg/ml BSA, 1M Sucrose, 0.1% Sodium azid. • 2× reaction buffer, Buffer B: 50 mM HEPES, 10 mM EDTA, 10 mM EGTA, 1.2M Na2SO4, sodium azide 0.1%, pH 8.5 • Artificial CSF: NaCl 125 mM, KCl 2.5 mM, MgCl 1 mM, NaH2PO4 1.25 mM, CaCl2 2 mM, Glucose 2.5 mM, NaHCO3 25 mM, 0.1% Sodium azide, HEPES 25 mM, pH 7.45. • Enzyme: Recombinant protease from enterovirus strain “Echo” [dilution 1:18 • Substrate: Camb-2.3, 1 mM, Camb-2.4, 2 mM. (Different batches for the same Camb2 sequence) • HEPES Buffer: HEPES 25 mM • NB tubes: Sigma Cat #Z666505 • Amber tubes: USA scientific Inc. Cat. 1620-2707 • 96 well Plate: Dark bottom NB plate—Greiner Cat. 655900
# • 1. Add artiCSF±HEPES buffer to plate • 2. Prepare 400 ul HEPES buffer±RB+substrate (camb2.3 and 2.4) in both amber and NB tubes. • 3. Add enzyme to wells • 4. Add HEPES buffer±RB+substrate to wells with multichannel pipette.
# The reaction buffer is a part of the enterovirus test kit of the invention. The camb-2 substrate is dissolved in the reaction buffer. The reaction buffer contains different salts to allow the tested enzyme to work at the optimal conditions. The current reaction buffer composition is: HEPES pH 7.5, 300 mM NaCl, 10 mM EDTA, 10 mM EGTA, 10% Glycerol, 1.8M Na2SO4, 0.1% Sodium azide. The amount of salt in the reaction buffer is high and allows optimal enzymatic activity. However, under these conditions, substrate solubility is affected. Thus, the reaction buffer was improved to increase substrate solubility without reducing enzymatic activity of the tested 3C protease.
# 300 mM NaCl and 10% glycerol was removed from the reaction buffer and several reduced concentrations of Na2SO4 (starting at 0.9M) were tested in order to determine the minimal salt requirements of the assay (Tables 31-34). Experiments were repeated at least three times by two different scientists.
# CSF sample was incubated with 50 nM Echo protease and 2× reaction buffer with 0.6M Na2SO4. Also included were 3 blanks and 9 positive control repetitions.
# The effect of reduction in substrate (camb2) concentration and increase in measurement time was tested. The experiment was performed at a final substrate (camb2.5) concentrations of 1, 0.5, 0.25 and 0.125 μM and data analysis was made at different time intervals: 1.5-5, 5-12 and 5-22 min (FIGS. 27A-C).
# Sodium sulfate generally has an ambivalent effect: it increase 3C protease activity and reduces substrate solubility. Once it was decided that the substrate concentration would be reduced to 0.25 uM and results analyzed at between 5-10 min, the Na2SO4 concentration was optimized. […] 0.6-0.4M Na2SO4 was tested under the new assay conditions.
# • Data analysis was performed between 5-10 min. • The assay activity was measured in triplicates by three scientists. The results in Table 51 are the average of the three triplicates.
# To examine the effect of substrate dilution in DMSO vs. DDW under the new assay conditions, substrate stock (1 mM in DMSO) was diluted 1:8 in DMSO or in DDW to yield the working stock. The working stocks were further diluted 1:250 in 2× RB for a concentration of 0.5 uM (0.25 uM final in the well).
# The assay activity was measured in triplicates by three scientists. The results in Table 52 are the average of the three triplicates.
# [4] = system: 3C protease (EV assay); test: Assay optimization - solvent (EV assay, Camb 2); assay type: biochemical, Enterovirus
# Procedure: Various solvents were tested in order to optimize substrate solubility and stability. […] All the solvents tested were prepared at 0-10% concentrations in 2× reaction buffer and the final concentrations tested were 0-5%. […] Camb 2 was added to the final 2× buffer. For 1,2-Propanediol and 1,3-Propanediol, Camb 2 was first dissolved in the solvent at the appropriate concentration. The solvent+camb2 was then added to 3× reaction buffer to make a final 2× reaction buffer+2 uM camb2. All the experiments were performed in the TECAN Polarstar n=1 in triplicates.
# [5] = target: PSA (Homo sapiens, UniProt P07288); conditions: in the presence of 1.3M Na2SO4; cited from earlier work
# [6] = target: T3, a-Chymotrypsin Type IV (Bos taurus, UniProt P00766, DEL14-15/DEL147-148); test: Competition inhibition of chymotrypsin by two substrates; assay type: biochemical; conditions: Sub.-1 50 nM, Enzyme 100 pg/ml
# T3 construct: purchased
# Procedure: • Dilution and reaction Buffer: HEPES 100 mM pH=7.5. • Substrate 1 (Sub.-1) Camb-2.4 (a batch of Camb2 substrate): FRET substrate based on Alexa 532 fluorophore. • Substrate 2 (Sub.-2): Commercially available colorimetric base (420NM) a-Chymotrypsin substrate. Dissolve in 1:1 HEPES/DMSO to 20 mm. additional 1:10 dilution was done in HEPES buffer. • Enzyme—a-Chymotrypsin: Commercially available a-Chymotrypsin Type IV was diluted in HEPES buffer to a stock of 20 ug/ml. Fluorimeter: DMV, Polar-Star Galaxy. Parameters: • Ex. […]. • Temprature RT. • Total reading Time 10 min. Gain 90
# • Solution-1: HEPES buffer. • Solution-2: Substrate-1 stock was diluted 1:10 in 1000 ul HEPES to give a 2× solution of 100 nM. • Solution-3, a-d: Substrate-2 stock was serially diluted 1:10 with HEPES and 10 ul of each dilution was added into 40 ul of HEPES. a-400 uM, b-40 uM, c-4 uM, d-400 nM (10× solutions) • Solution-4: Enzyme stock was diluted 1:20 into 300 ul of HEPES to give a 10× solution.
# Using a multi-Channel pipette, the above Solutions were added into a non binding blacked bottom 96 wells plat, using columns 1-6 of rows A-C. 30 ul Solution-1 and 50 ul Solution-2 were added to each well. Into rows A-C, 10 ul of Solution-1 was added to columns 1 and 2, 10 ul Solution-3a was added to column 3, 10 ul Solution-3b was added to column 4, 10 ul Solution-3c was added to column 5 and 10 ul Solution-3d was added to column 6. Into rows A-C. 10 ul of Solution-1 was added to columns 1, 10 ul of Solution-4 was added to columns 2-6. Fluorimertic reading was then started.
# T1 sequence (P03303 1538-1719): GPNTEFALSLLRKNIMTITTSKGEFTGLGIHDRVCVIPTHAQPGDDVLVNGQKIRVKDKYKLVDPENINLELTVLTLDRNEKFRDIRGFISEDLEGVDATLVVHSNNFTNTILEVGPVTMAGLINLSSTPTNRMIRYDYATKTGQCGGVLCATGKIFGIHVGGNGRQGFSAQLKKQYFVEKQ
# T2 sequence (Q9WN78 1550-1732): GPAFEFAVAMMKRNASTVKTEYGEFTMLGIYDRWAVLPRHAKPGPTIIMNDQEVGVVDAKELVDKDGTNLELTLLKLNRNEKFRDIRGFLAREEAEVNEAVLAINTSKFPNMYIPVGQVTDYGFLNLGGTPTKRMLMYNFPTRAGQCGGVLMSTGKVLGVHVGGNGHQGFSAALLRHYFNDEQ
# Sequence of PSA (P07288 25-261): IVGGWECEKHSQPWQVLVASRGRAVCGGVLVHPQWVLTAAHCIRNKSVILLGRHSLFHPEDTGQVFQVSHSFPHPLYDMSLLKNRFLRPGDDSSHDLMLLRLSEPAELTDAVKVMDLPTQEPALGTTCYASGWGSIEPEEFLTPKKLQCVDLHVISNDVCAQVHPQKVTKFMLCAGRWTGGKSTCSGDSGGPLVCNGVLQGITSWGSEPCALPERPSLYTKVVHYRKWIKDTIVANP
compound,measurement,setting,value
CC(C)CC(=O)N[C@H](C(=O)N[C@H](C(=O)N[C@@H](CC(C)C)[C@@H](O)CC(=O)N[C@@H](C)C(=O)N[C@@H](CC(C)C)[C@@H](O)CC(=O)O)C(C)C)C(C)C [Pepstatin A] (Isovaleryl-VV[Sta]A[Sta]-OH),inhibition of HRV 3C protease activity,[1],did not inhibit
same,effect on the non specific proteolytic activity of the nasal wash specimen,[2],no effect
O [DDW],reaction rate lower compared to DMSO,[3]; substrate diluted with DDW,25%
same,"Positive control, Average",[3]; analysis 5-10 min,789.5 RFU/min
same,Positive control,[3]; analysis 5-10 min,747 ± 68 RFU/min and 832 ± 64 RFU/min
CC(C)C[C@H](NC(=O)[C@H]1O[C@@H]1C(=O)O)C(=O)NCCCCN=C(N)N [E-64],inhibition of HRV 3C protease activity,[1],no inhibition
C[S+](C)[O-] [DMSO],Reaction rate Average P.C,"[4]; DMSO 1% final, Table 41",1270 RFU/min
same,% Loss,"[4]; DMSO 2.5% final, Table 41",7%
same,Reaction rate Average P.C,"[4]; DMSO 2.5% final, Table 41",1139.26 RFU/min
same,Reaction rate Average P.C,"[4]; DMSO 4% final, Table 41",1288 RFU/min
same,effect on reaction rate,[4]; all concentrations tested,no loss in reaction rate
same,"Positive control, Average",[3]; analysis 5-10 min,1005 RFU/min
same,Positive control,[3]; analysis 5-10 min,1023 ± 36 RFU/min and 987 ± 126 RFU/min
O=S(=O)([O-])[O-].[Na+].[Na+] [Na2SO4],"Positive control reaction rate, 0.4M Na2SO4, Averages ± SE","[3]; 0.4M Na2SO4, average of all experiments, analysis 5-10 min",444 ± 75 RFU/min
same,enzymatic activity,"[3]; 0.4M sodium sulfate, analysis 5-10 min",444
same,"Positive control reaction rate, 0.5M Na2SO4, Averages ± SE","[3]; 0.5M Na2SO4, average of all experiments, analysis 5-10 min",703 ± 56 RFU/min
same,enzymatic activity,"[3]; 0.5M sodium sulfate, analysis 5-10 min",700
same,"Positive control reaction rate, 0.6M Na2SO4, Averages ± SE","[3]; 0.6M Na2SO4, average of all experiments, analysis 5-10 min",825 ± 31 RFU/min
same,"Positive control reaction rate, 0.6M Na2SO4","[3]; 0.6M Na2SO4 final, recombinant Echo protease positive control, 0.25 uM camb2.5 substrate, data analysis 5-10 min, single experiments (EXP)",679 RFU/min and 918 RFU/min and 921 RFU/min and 739 RFU/min and 770 RFU/min and 862 RFU/min and 890 RFU/min and 824 RFU/min
same,enzymatic activity,"[3]; 0.6M sodium sulfate, analysis 5-10 min",825
same,increase of PSA photolytic activity,[5],> 103 fold
CC(C)[C@@H]1C(=O)N(S(C)(=O)=O)[C@@H]2CCN(C(=O)/C=C/CN3CCCCC3)[C@H]21.Cl [GW311616A],inhibition of HRV 3C protease activity,[1],did not inhibit
CC(C)C[C@H](NC(=O)[C@@H](O)[C@H](N)Cc1ccccc1)C(=O)O [Bestatin],inhibition of HRV 3C protease activity,[1],did not inhibit
same,effect on the non specific proteolytic activity of the nasal wash specimen,[2],no effect
Ac-DEVD-CHO,effect on the non specific proteolytic activity of the nasal wash specimen,[2],no effect
Heparin,inhibition of HRV 3C protease activity,[1],did not inhibit
"M-Suc-Ala-Ala-Pro-Phe-p-Nitr (MeOSuc-AAPF-pNA; SMILES COC(=O)CCC(=O)N[C@@H](C)C(=O)N[C@@H](C)C(=O)N1CCC[C@H]1C(=O)N[C@@H](Cc1ccccc1)C(=O)Nc1ccc([N+](=O)[O-])cc1) [Sub.-2, Commercially available colorimetric a-Chymotrypsin substrate]",Inhibition %,[6]; Sub.-2 40 nM,10%
same,Rate FU/min (Average),[6]; Sub.-2 40 nM,18000 FU/min
same,Inhibition %,[6]; Sub.-2 400 nM,20%
same,Rate FU/min (Average),[6]; Sub.-2 400 nM,16000 FU/min
same,Inhibition %,[6]; Sub.-2 4 uM,40%
same,Rate FU/min (Average),[6]; Sub.-2 4 uM,12000 FU/min
same,Inhibition %,[6]; Sub.-2 40 uM,55%
same,Rate FU/min (Average),[6]; Sub.-2 40 uM,9000 FU/min

# Source: patent US20110306035A1, “Methods and Compositions for Detection of a Pathogen, Disease, Medical Condition, or Biomarker Thereof” (priority 2008, published 2011)
